Molecular target: T1, human LPAAT-β (Homo sapiens, UniProt O15120)
T1 construct: the full-length human LPAAT-β cDNA was amplified by PCR; poly-histidine tag (N); made in house; host or cells: Sf9 insect cells (baculovirus, pFastBac HTc); the membrane fraction was used as the enzyme
T1 sequence (O15120 24-278): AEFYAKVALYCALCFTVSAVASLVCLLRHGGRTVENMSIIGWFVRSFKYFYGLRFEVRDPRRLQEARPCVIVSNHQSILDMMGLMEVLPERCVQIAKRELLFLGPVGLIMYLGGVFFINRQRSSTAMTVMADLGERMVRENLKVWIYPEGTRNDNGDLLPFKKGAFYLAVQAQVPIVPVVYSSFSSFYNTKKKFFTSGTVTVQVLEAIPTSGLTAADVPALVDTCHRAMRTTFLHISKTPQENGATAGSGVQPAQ
Assay: LPAAT-β cell-free assay
Assay type: biochemical
Settings: Sf9 cell membrane overexpressing recombinant LPAAT-β
How it was run: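 Membranes from Sf9 cells expressing His/myc-tagged full-length human LPAAT-β were used in HEPES-saline pH 7.5 with 1 mg/ml BSA. Compound was added from a 200 μM DMSO stock, and reaction with 18:1-CoA and sn-1-18:1 lysoPA (1 mM stocks) ran 25 min at RT. Released CoA was detected with DTNB at 405 nm; a radiometric variant used 200 μM [14C]18:1-CoA and 200 μM lysoPA.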

| SMILES | IC50 [nM] |
| --- | --- |
| COc1ccc(Cl)cc1-c1cc(Nc2ccc(O)cc2)nc(N)n1 [Example 6, 4-[2-Amino-6-(5-chloro-2-methoxy-phenyl)-pyrimidin-4-ylamino]-phenol] | 450 |
| CCOc1ccc(Br)cc1-c1cc(Nc2ccc(C(C)OC)cc2)nc(N)n1 (centres unmarked) [Example 137, 6-(5-Bromo-2-ethoxy-phenyl)-N*4*-[4-(1-methoxy-ethyl)-phenyl]-pyrimidin-2,4-diamine] | 260 |
| CNC(=O)c1cc(Nc2cc(-c3cc(Br)ccc3OC)nc(N)n2)ccc1Cl [Example 184, 5-[2-Amino-6-(5-bromo-2-methoxy-phenyl)-pyrimidin4-ylamino]-2-chloro-N-methyl-benzamide] | 200 |
| CCOc1ccc(Br)cc1-c1cc(Nc2ccc(Cl)cc2)ncn1 [Example 190, [6-(5-Bromo-2-ethoxy-phenyl)-pyrimidin4-yl]-(4-chloro-phenyl)-amine] | 30 |
| COCCOc1ccc(Br)cc1-c1cc(Nc2ccc(Cl)cc2)nc(N)n1 [Example 143, 6-[5-Bromo-2-(2-methoxy-ethoxy)-phenyl]-N*4*-(4-chloro-phenyl)-pyrimidine-2,4-diamine] | 22 |
| CC(=NO)c1ccc(Nc2cc(-c3cc(Cl)ccc3Cl)nc(N)n2)cc1 [Example 154, 1-{4-[2-Amino-6-(2,5-dichloro-phenyl)-pyrimidin-4-yl-amino]-phenyl}-ethanone oxime] | 98 |
| CCOc1ccc(Br)cc1-c1cc(Nc2ccc(F)cc2)ncn1 [Example 192, [6-(5-Bromo-2-ethoxy-phenyl)-pyrimidin4-yl]-(4-fluoro-phenyl)-amine] | 60 |
| CCOc1ccc(Cl)cc1-c1cc(Nc2ccc(C#N)cc2)nc(N)n1 [Example 57, 4-[2-Amino-6-(5-chloro-2-ethoxy-phenyl)-pyrimidin4-ylamino]-benzonitrile] | 22 |
| Cc1ccc(Cl)cc1-c1cc(Nc2ccc(CCO)cc2)ncn1 [Example 176, 2-{4-[6-(5-Chloro-2-methyl-phenyl)-pyrimidin-4-ylamino]-phenyl}-ethanol] | 60 |
| COc1ccc(Cl)cc1-c1cc(Nc2ccc(C)cc2)nc(N)n1 [Example 1, 6-(5-Chloro-2-methoxy-phenyl)-N*4*-p-tolyl-pyrimidine-2,4-diamine] | 120 |
| CCCOc1ccc(Br)cc1-c1cc(Nc2ccc(Cl)cc2)nc(N)n1 [Example 135, 6-(5-Bromo-2-propoxy-phenyl)-N*4*-(4-chloro-phenyl)-pyrimidine-2,4-diamine] | 8 |
| CCOc1ccc(Br)cc1-c1cc(Nc2ccc(Br)cc2)ncn1 [Example 181, [6-(5-Bromo-2-ethoxy-phenyl)-pyrimidin-4-yl]-(4-bromo-phenyl)-amine] | 40 |
| COc1ccc(Br)cc1-c1cc(Nc2ccc(Cl)cc2)nc(N)n1 [Example 142, 6-(5-Bromo-2-methoxy-phenyl)-N*4*-(4-chloro-phenyl)-pyrimidine-2,4-diamine] | 18 |
| CCOc1ccc(Cl)cc1-c1cc(N(C)c2ccc(Cl)cc2)nc(N)n1 [Example 122, 6-(5-chloro-2-ethoxyphenyl)-N*4*-(4-chlorophenyl)-N*4*-methylpyrimidine-2,4-diamine] | 1200 |
| Nc1nc(Nc2ccc([N+](=O)[O-])cc2)cc(-c2cc(Br)ccc2OCc2ccccc2)n1 [Example 177, 6-(2-Benzyloxy-5-bromo-phenyl)-N*4*-(4-nitro-phenyl)-pyrimidine-2,4-diamine] | 2 |
| CCOc1ccc(Br)cc1-c1cc(Nc2ccc(C(=O)NO)cc2)nc(N)n1 [Example 183, 4-[2-Amino-6-(5-bromo-2-ethoxy-phenyl)-pyrimidin-4-ylamino]-N-hydroxy-benzamide] | 88 |

| SMILES | IC50 [nM] |
| --- | --- |
| Cc1ccc(Br)cc1-c1cc(Nc2ccc(C(F)(F)F)cc2)nc(N)n1 [Example 82, 6-(S-Bromo-2-methyl-phenyl)-N*4*-(4-trifluoromethyl-phenyl)-pyrimidine-2,4-diamine] | 100 |
| COc1ccc(C)c(-c2cc(Nc3ccc(Cl)cc3)nc(N)n2)c1 [Example 71, N*4*-(4-Chloro-phenyl)-6-(5-methoxy-2-methyl-phenyl)-pyrimidine-2,4-diamine] | 210 |
| COc1ccc(Br)cc1-c1cc(Nc2ccc([N+](=O)[O-])cc2)nc(N)n1 [Example 161, 6-(5-Bromo-2-methoxy-phenyl)-N*4*-(4-nitro-phenyl)-pyrimidine-2,4-diamine] | 14 |
| Nc1nc(Nc2ccc(Cl)cc2)cc(-c2ccccc2)n1 [Example 106, N*4*-(4-Chloro-phenyl)-6-phenyl-pyrimidine-2,4-diamine] | 1100 |
| CCOC(=O)c1cccc(Nc2cc(-c3cc(Br)ccc3OC)nc(N)n2)c1 [Example 171, 3-[2-Amino-6-(5-bromo-2-methoxy-phenyl)-pyrimidin4-ylamino]-benzoic acid ethyl ester] | 260 |
| Nc1nc(Nc2ccc(CCO)cc2)cc(-c2cc(Cl)ccc2OCc2ccccc2)n1 [Example 158, 2-[4-{2-Amino-6-(2-benzyloxy-5-chloro-phenyl)-pyrimidin4-ylamino]-phenyl}-ethanol] | 16 |
| CC(=NO)c1ccc(Nc2cc(-c3cc(Cl)ccc3C)nc(N)n2)cc1 [Example 104, 1-{4-[2-Amino-6-(5-chloro-2-methyl-phenyl)-pyrimidin-4-ylamino]-phenyl}-ethanone-oxime] | 160 |
| Cc1ccc(Cl)cc1-c1cc(Nc2ccc3c(c2)C(=O)NC3=O)nc(N)n1 [Example 79, 5-[2-Amino-6-(5-chloro-2-methyl-phenyl)-pyrimidin4-ylamino]-isoindole-1,3-dione] | 900 |
| Cc1ccc(Cl)cc1-c1cc(Nc2ccc(C(F)(F)F)nc2)nc(N)n1 [Example 126, 6-(5-chloro-2-methylphenyl)-N*4*-(6-trifluoromethylpyridin-3-yl)pyrimidine-2,4-diamine] | 500 |
| Cc1ccc(Cl)cc1-c1cc(Nc2ccc(F)cc2)nc(N)n1 [Example 97, 6-(5-Chloro-2-methyl-phenyl)-N*4*-(4-fluoro-phenyl)-pyrimidine-2,4-diamine] | 73 |
| CCOc1ccc(Cl)cc1-c1cc(Nc2ccc(-c3cnco3)cc2)nc(N)n1 [Example 66, 6-(5-Chloro-2-ethoxy-phenyl)-N*4*-(4-oxazol-5-yl-phenyl)-pyrimidine-2,4-diamine] | 450 |
| CCOC(=O)c1cccc(Nc2cc(-c3cc(Cl)ccc3Cl)nc(N)n2)c1 [Example 170, 3-[2-Amino-6-(2,5-dichloro-phenyl)-pyrimidin-4-ylamino]-benzoic acid ethyl ester] | 24 |
| Nc1nc(Nc2ccc(Cl)cc2)cc(-c2cc(Br)ccc2OCCc2ccccc2)n1 [Example 166, 6-(5-Bromo-2-phenethyloxy-phenyl)-N*4*-(4-chloro-phenyl)-pyrimidine-2,4-diamine] | 5 |
| Cc1ccc(Cl)cc1-c1cc(Nc2ccc(CO)cc2)nc(N)n1 [Example 33, {4-[2-Amino-6-(5-chloro-2-methyl-phenyl)-pyrimidin4-ylamino]-phenyl}-methanol] | 95 |
| Nc1nc(Nc2ccc(Cl)cc2)cc(-c2cc(Br)ccc2OCc2ccc(Cl)cc2)n1 [Example 165, 6-[5-Bromo-2-(4-chloro-benzyloxy)-phenyl]-N*4*-(4-chloro-phenyl)-pyrimidine-2,4-diamine] | 3 |
| CCCCCCOc1ccc(Br)cc1-c1cc(Nc2ccc(Cl)cc2)nc(N)n1 [Example 145, 6-(5-Bromo-2-hexyloxy-phenyl)-N*4*-(4-chloro-phenyl)-pyrimidine-2,4-diamine] | 5 |
